Data reported in patent US8980911B2, “Heterocyclic compounds as protein kinase inhibitors” (Daiichi Sankyo Company, Limited, priority 2011, dated 2015).

Assays:
Format in all cases: biochemical
[1] = target: T1, JAK1 (Homo sapiens, UniProt P23458); experiment: In vitro enzyme assay (cell-free HTRF kinase assay), JAK1; details: catalytic domain aa 850-1154, GST-tag; ATP 60 μM, SRCtide 400 nM, reaction 120 min
T1 construct: JAK1 (aa 850-1154) and TYK2 (aa 871-1187) are expressed with an N-terminally fused GST-tag; GST (N); purchased Carna Bioscience, Inc; host or cells: baculovirus expression system
T1 sequence (P23458 850-1154): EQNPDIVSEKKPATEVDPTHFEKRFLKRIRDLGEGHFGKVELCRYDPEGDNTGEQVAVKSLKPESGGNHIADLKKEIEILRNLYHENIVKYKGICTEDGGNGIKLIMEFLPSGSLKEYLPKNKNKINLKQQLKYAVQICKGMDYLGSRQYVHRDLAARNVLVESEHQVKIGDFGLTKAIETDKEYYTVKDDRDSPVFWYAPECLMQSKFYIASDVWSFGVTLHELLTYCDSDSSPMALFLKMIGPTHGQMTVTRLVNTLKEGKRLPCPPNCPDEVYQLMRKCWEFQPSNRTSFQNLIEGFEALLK
Procedure: (§1) Kinase buffer [50 mM HEPES (pH 7.5), 1 mM EGTA, 10 mM MgCl2, 2 mM DTT and 0.01% Tween-20) was prepared and dilutions of a compound of formula (I) and other reagents were subsequently made in it. Two times concentrated compound of formula (I) solution: A compound of formula (I) was diluted to 100-fold final concentration in DMSO, followed by 50-fold dilution with Kinase buffer (1% DMSO final concentration). Four times concentrated Substrate/ATP mix solution: Biotin-SRCtide and ATP were diluted to 4-fold final concentration in Kinase buffer. Biotin-SRCtide solution (purchased from Anaspec) was mixed with ATP solution (1:1). Four times concentrated Enzyme solution: JAK1 or JAK2 or JAK3 or TYK2 enzyme [Human baculo virus expressed JAK1, JAK2, JAK3 and TYK2 were purchased from Carna Bioscience, Inc. All enzymes only contain the catalytic domain. JAK1 (aa 850-1154) and TYK2 (aa 871-1187) are expressed with an N-terminally fused GST-tag, and JAK2 and JAK3 with an N-terminally fused His-tag] was diluted to 4-fold final concentration in Kinase buffer and always kept on ice. Detection buffer: LANCE detection buffer (10 times concentrated) was diluted 10-fold in H2O. Four times concentrated stop solution: EDTA was diluted to a concentration of 40 mM in detection buffer. Four times concentrated ULight/Eu-antibody (from Perkin Elmer) mix solution: ULight-Streptavidin was diluted to a concentration of 100 nM (25 ng/mL final concentrations) and Eu-anti-phospho-Tyrosine (PT66) (from Perkin Elmer) was diluted to a concentration of 8 nM (2 ng/mL final concentration) in detection buffer.
(§2) Cell-free in vitro kinase assay was performed in 384 well plates. Two times concentrated compound solution (5 μL) was pipetted into a HTS 384SV Small Volume Plate. Four times concentrated Substrate/ATP mix (2.5 μL) solution was added along with 4 times concentrated Enzyme solution (2.5 μL). Plate was covered with TopSeal-A and incubated at room temperature for indicated time (Table 3). Four times concentrated Stop solution (5 μL, 10 mM final concentration) was added and incubated for 5 minutes at room temperature. Four times concentrated ULight/Eu-antibody mix solution (5 μL) was added and again plate was covered with TopSeal and incubated overnight at 4° C. TopSeal was removed and HTRF signal was measured at 615 nm and […] (excitation at 320 or 340 nm) on Tecan M1000 Multi mode plate reader. Ratio (665 nm/615 nm)×10^4 was calculated and IC50 values were deduced from Graph-pad prism 4.2.

[2] = target: T2, JAK2 (Homo sapiens, UniProt O60674); experiment: In vitro enzyme assay (cell-free HTRF kinase assay), JAK2; details: catalytic domain, His-tag; ATP 10 μM, SRCtide 25 nM, reaction 30 min
T2 construct: All enzymes only contain the catalytic domain; His (N); purchased Carna Bioscience, Inc; host or cells: baculovirus expression system
T2 sequence (O60674 849-1124 limits assumed): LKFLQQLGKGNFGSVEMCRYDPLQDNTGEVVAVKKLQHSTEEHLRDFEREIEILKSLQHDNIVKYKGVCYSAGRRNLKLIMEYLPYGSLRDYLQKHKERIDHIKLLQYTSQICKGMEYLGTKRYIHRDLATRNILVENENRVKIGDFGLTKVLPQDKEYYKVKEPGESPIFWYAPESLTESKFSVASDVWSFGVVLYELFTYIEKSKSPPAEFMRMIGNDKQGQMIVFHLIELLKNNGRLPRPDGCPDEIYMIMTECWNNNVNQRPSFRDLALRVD
Procedure: as §1, §2

[3] = target: T3, JAK3 (Homo sapiens, UniProt P52333); experiment: In vitro enzyme assay (cell-free HTRF kinase assay), JAK3; details: catalytic domain, His-tag; ATP 3 μM, SRCtide 100 nM, reaction 30 min
T3 construct: All enzymes only contain the catalytic domain; His (N); purchased Carna Bioscience, Inc; host or cells: baculovirus expression system
T3 sequence (P52333 822-1111 limits assumed): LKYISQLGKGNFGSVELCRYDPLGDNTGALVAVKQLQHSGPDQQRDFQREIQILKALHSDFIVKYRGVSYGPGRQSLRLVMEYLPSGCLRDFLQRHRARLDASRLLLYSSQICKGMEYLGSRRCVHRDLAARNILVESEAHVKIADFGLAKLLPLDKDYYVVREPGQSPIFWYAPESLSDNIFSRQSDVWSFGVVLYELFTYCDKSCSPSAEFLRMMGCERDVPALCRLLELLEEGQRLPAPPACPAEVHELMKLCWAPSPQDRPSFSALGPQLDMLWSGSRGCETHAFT
Procedure: as §1, §2

| IC50 [1] | IC50 [2] | IC50 [3] | Structure (SMILES) |
| --- | --- | --- | --- |
| < 1000 nM | < 500 nM | < 500 nM | N#Cc1cc(Cl)c(C(=O)n2ccc3c(NC(=O)C4CC4)nccc32)c(Cl)c1 [Compound No. 86, N-[1-(2,6-Dichloro-4-cyanobenzoyl)-1H-pyrrolo[3,2-c]pyridin-4-yl]cyclopropanecarboxamide] |
| < 500 nM | < 100 nM | < 50 nM | NCCNC(=O)c1cc(Cl)c(C(=O)n2ccc3c(NC(=O)C4CC4)nccc32)c(Cl)c1 [Compound No. 127, N-(2-Aminoethyl)-3,5-dichloro-4-({4-[(cyclopropylcarbonyl)amino]-1H-pyrrolo[3,2-c]pyridin-1-yl}carbonyl)benzamide] |
| < 1000 nM | < 500 nM | < 100 nM | CC(=O)Nc1cc(Cl)c(C(=O)c2c[nH]c3c(NC(=O)C4CC4)nccc23)c(Cl)c1 [Compound No. 27, N-{3-[4-(Acetylamino)-2,6-dichlorobenzoyl]-1H-pyrrolo[2,3-c]pyridin-7-yl}cyclopropanecarboxamide] |
| < 500 nM | < 1000 nM | < 500 nM | O=C(NCCCN1CCOCC1)c1cc(Cl)c(C(=O)c2c[nH]c3c(NC(=O)C4CC4)nccc23)c(Cl)c1 [Compound No. 31, 3,5-Dichloro-4-({7-[(cyclopropylcarbonyl)amino]-1H-pyrrolo[2,3-c]pyridin-3-yl}carbonyl)-N-[3-(morpholin-4-yl)propyl]benzamide] |
| < 500 nM | < 500 nM | < 500 nM | O=C(NCCN1CCCCC1)c1cc(Cl)c(C(=O)c2c[nH]c3c(NC(=O)C4CC4)nccc23)c(Cl)c1 [Compound No. 34, 3,5-Dichloro-4-({7-[(cyclopropylcarbonyl)amino]-1H-pyrrolo[2,3-c]pyridin-3-yl}carbonyl)-N[2-(piperidin-1-yl)ethyl]benzamide] |
| < 500 nM | < 1000 nM | < 500 nM | O=C(c1c(Cl)cc(Br)cc1Cl)c1c[nH]c2c(NC(=O)C3CC3)nccc12 [Compound No. 22, N-[3-(4-Bromo-2,6-dichlorobenzoyl)-1H-pyrrolo[2,3-c]pyridin-7-yl]cyclopropanecarboxamide] |
| < 1000 nM | < 500 nM | < 500 nM | O=C(Nc1nccc2c1ccn2C(=O)c1c(Cl)cccc1Cl)C1CC1 [Compound No. 77, N-[1-(2,6-Dichlorobenzoyl)-1H-pyrrolo[3,2-c]pyridin-4-yl]cyclopropanecarboxamide] |
| < 1000 nM | < 500 nM | < 500 nM | COCCNC(=O)c1cc(Cl)c(C(=O)c2c[nH]c3c(NC(=O)C4CC4)nccc23)c(Cl)c1 [Compound No. 16, 3,5-Dichloro-4-({7-[(cyclopropylcarbonyl)amino]-1H-pyrrolo[2,3-c]pyridin-3-yl}carbonyl)-N-(2-methoxyethyl)benzamide] |
| < 1000 nM | < 500 nM | < 500 nM | Cc1noc(C)c1-c1cc(Cl)c(C(=O)c2c[nH]c3c(NC(=O)C4CC4)nccc23)c(Cl)c1 [Compound No. 23, N-{3-[2,6-Dichloro-4-(3,5-dimethyl-1,2-oxazol-4-yl)benzoyl]-1H-pyrrolo[2,3-c]pyridin-7-yl}cyclopropanecarboxamide] |
| < 500 nM | < 500 nM | < 500 nM | O=C(NCCCO)c1cc(Cl)c(C(=O)c2c[nH]c3c(NC(=O)C4CC4)nccc23)c(Cl)c1 [Compound No. 30, 3,5-Dichloro-4-({7-[(cyclopropylcarbonyl)amino]-1H-pyrrolo[2,3-c]pyridin-3-yl}carbonyl)-N-(3-hydroxypropyl)benzamide] |
| < 500 nM | < 500 nM | < 500 nM | O=C(c1c(Cl)cccc1Cl)c1c[nH]c2c(NC(=O)C3CC3)nccc12 [Compound No. 5, N-[3-(2,6-Dichlorobenzoyl)-1H-pyrrolo[2,3-c]pyridin-7-yl]cyclopropanecarboxamide] |
| < 1000 nM | < 1000 nM | < 500 nM | O=C(NCCn1cccc1)c1cc(Cl)c(C(=O)n2ccc3c(NC(=O)C4CC4)nccc32)c(Cl)c1 [Compound No. 168, 3,5-Dichloro-4-({4-[(cyclopropylcarbonyl)amino]-1H-pyrrolo[3,2-c]pyridin-1-yl}carbonyl)-N-[2-(1H-pyrrol-1-yl)ethyl]benzamide] |
| < 1000 nM | < 1000 nM | < 1000 nM | CCOC(=O)[C@H](C)NC(=O)c1cc(Cl)c(C(=O)n2ccc3c(NC(=O)C4CC4)nccc32)c(Cl)c1 [Compound No. 141, Ethyl N-[3,5-dichloro-4-({4-[(cyclopropylcarbonyl)amino]-1H-pyrrolo[3,2-c]pyridin-1-yl}carbonyl)benzoyl]alaninate] |
| < 500 nM | < 50 nM | < 500 nM | O=C(c1c(F)cccc1Cl)c1c[nH]c2cnc(NC(=O)C3CC3)cc12 [Compound No. 19, N-[3-(2-Chloro-6-fluorobenzoyl)-1H-pyrrolo[2,3-c]pyridin-5-yl]cyclopropanecarboxamide] |
| < 1000 nM | < 500 nM | < 500 nM | O=C(Nc1cc(Cl)c(C(=O)n2ccc3c(NC(=O)C4CC4)nccc32)c(Cl)c1)NC1CC1 [Compound No. 113, N-(1-{2,6-Dichloro-4-[(cyclopropylcarbamoyl)amino]benzoyl}-1H-pyrrolo[3,2-c]pyridin-4-yl)cyclopropanecarboxamide] |
| < 100 nM | < 100 nM | < 100 nM | CN(C)CCNC(=O)c1cc(Cl)c(C(=O)c2c[nH]c3c(NC(=O)C4CC4)nccc23)c(Cl)c1 [Compound No. 33, 3,5-Dichloro-4-({7-[(cyclopropylcarbonyl)amino]-1H-pyrrolo[2,3-c]pyridin-3-yl}carbonyl)-N-[2-(dimethylamino)ethyl]benzamide] |
| < 1000 nM | < 500 nM | < 500 nM | CNC(=O)c1cc(F)c(C(=O)c2c[nH]c3c(NC(=O)C4CC4)nccc23)c(F)c1 [Compound No. 61, 4-({7-[(Cyclopropylcarbonyl)amino]-1H-pyrrolo[2,3-c]pyridin-3-yl}carbonyl)-3,5-difluoro-N-methylbenzamide] |
| < 1000 nM | < 500 nM | < 500 nM | COCCNC(=O)Nc1cc(Cl)c(C(=O)n2ccc3c(NC(=O)C4CC4)nccc32)c(Cl)c1 [Compound No. 111, N-[1-(2,6-Dichloro-4-{[(2-methoxyethyl)carbamoyl]amino}benzoyl)-1H-pyrrolo[3,2-c]pyridin-4-yl]cyclopropanecarboxamide] |
| < 1000 nM | < 1000 nM | < 1000 nM | CC(=O)Nc1nccc2c(C(=O)c3c(Cl)cc(C(=O)NCCN4CCCC4)cc3Cl)c[nH]c12 [Compound No. 44, 4-{[7-(Acetylamino)-1H-pyrrolo[2,3-c]pyridin-3-yl]carbonyl}-3,5-dichloro-N-[2-(pyrrolidin-1-yl)ethyl]benzamide] |
| < 1000 nM | < 1000 nM | < 1000 nM | CC(=O)Nc1nccc2c(C(=O)c3c(Cl)cc(C(=O)NCCN4CCCCC4)cc3Cl)c[nH]c12 [Compound No. 42, 4-{[7-(Acetylamino)-1H-pyrrolo[2,3-c]pyridin-3-yl]carbonyl}-3,5-dichloro-N-[2-(piperidin-1-yl)ethyl]benzamide] |
| < 500 nM | < 1000 nM | < 500 nM | CCNC(=O)c1cc(F)c(C(=O)c2c[nH]c3c(NC(=O)C4CC4)nccc23)c(F)c1 [Compound No. 60, 4-({7-[(Cyclopropylcarbonyl)amino]-1H-pyrrolo[2,3-c]pyridin-3-yl}carbonyl)-N-ethyl-3,5-difluorobenzamide] |
| < 1000 nM | < 500 nM | < 1000 nM | O=C(NCCc1cccnc1)c1cc(Cl)c(C(=O)n2ccc3c(NC(=O)C4CC4)nccc32)c(Cl)c1 [Compound No. 169, 3,5-Dichloro-4-({4-[(cyclopropylcarbonyl)amino]-1H-pyrrolo[3,2-c]pyridin-1-yl}carbonyl)-N-[2-(pyridin-3-yl)ethyl]benzamide] |
